Experimental data: patent publication US6265617A, “Process for the preparation of 3,5,5-trimethylcyclohexa-3-en-1-one (β-isophorone) by isomerization of 3,5,5- trimethylcyclohexa-2-en-1-one (α-isophorone)” (Degussa-Huls Aktiengesellschaft, priority 1998, dated 2001)

Experiment: Catalyst activity in liquid-phase isomerization of α-isophorone to β-isophorone
Conditions: for Rate of formation of β-IP: boiling point, normal pressure, 25 vol.% withdrawal
From the text: The apparatus for carrying out the isomerization consists of a mushroom-shaped heater, an isomerization flask with attached distillation column, through which a primary mixture composed of α-IP and β-IP is withdrawn, and a pump for recirculating the unreacted α-isophorone left after the purifying distillation of β-IP. […] The suspension is heated to boiling point at normal pressure and the quantity of the α-IP delivered by a Telab pump is coordinated with the quantity of the distillate withdrawn.
The primary distillate obtained is conveyed to a distillation column operating at a partial vacuum of 5 mbar to 100 mbar. […] The bottom product consisting of unreacted α-isophorone is returned to the isomerization reactor.
Technical sodium hydroxide in various concentrations is stirred into α-IP in the apparatus already described above. With the identical continuous procedure (see Example 1), at the top of the isomerization unit a withdrawal rate of 25 vol.% of a primary distillate is established, based on the quantity of isomerization and the reflux ratio.
Technical potassium carbonate in various concentrations is stirred into α-IP in the apparatus already described above. With the identical continuous procedure (see Example 1), at the top of the isomerization unit a withdrawal rate of 25 vol.% of a primary distillate is established, based on the quantity of isomerization and the reflux ratio.
Various catalysts containing alkali-metal cations are compared with regard to their catalytic activity during the isomerization under conditions corresponding to those in the previous Examples.
Various alkali-metal bases and alkaline-earth bases used as catalysts are compared with regard to their catalytic activity during the isomerization under conditions corresponding to those in the previous Examples.
Various catalysts containing alkali-metal cations and the elements are compared with regard to their catalytic activity during the isomerization under conditions corresponding to those in the previous Examples.

[1] = 2 × 10^-2 mol.% catalyst per mol α-IP
[2] = 0.2 mmol K2CO3 for 1 mol α-IP, illustrative calculation
[3] = 2 × 10^-0 mol.% catalyst per mol α-IP
[4] = 2 × 10^-1 mol.% catalyst per mol α-IP

Row | SMILES | Rate of formation of β-IP [1] [g β-IP/h/liter α-IP] | also measured
1 | [Ca+2].[OH-].[OH-] [Ca(OH)2] | 41.1 | –
2 | O=C(O)O [K2 CO3, potassium carbonate] | 73.8 | improved space-time yield YR-Z based on the volume of the educt solution used: 80 g β-IP/h per kg α-IP; conversion, β-isophorone per kg of catalyst used and per hour [2]: approximately 422.15 kg; β-IP formation [2]: 74 g β-IP/h/liter; β-IP formation per kg solution [2]: 80.43 g β-IP/h/kg solution; Rate of formation of β-IP [3]: 68.8 g β-IP/h/liter α-IP; Rate of formation of β-IP [4]: 76.4 g β-IP/h/liter α-IP
3 | O=C(O)O [KHCO3] | 64.4 | –
4 | [K+].[OH-] [KOH] | 66.9 | –
5 | O=C(O)O [Li2 CO3] | 48.3 | –
6 | [AlH4-].[Li+] [LiAIH4] | 43.3 | –
7 | [BH4-].[Li+] [LiBH4] | 46.1 | –
8 | [Li+].[OH-] [LiOH] | 61.3 | –
9 | [Mg+2].[OH-].[OH-] [Mg(OH)2] | 8.2 | Rate of formation of β-IP [4]: 9.3 g β-IP/h/liter α-IP
10 | O=C(O)O [Na2 CO3, sodium carbonate] | 47.4 | calculated yield based on the quantity of catalyst used, Yβ-IP (0.2 mol.% catalyst, continuous operation): 229.7 kg β-IP/h/kgcat.; space-time yield (per hour and quantity of catalyst used) Y (1 mol.% catalyst): 15.357 kg β-IP/h/kg catalyst; space-time yield YR-Z based on α-IP used (1 mol.% catalyst): 0.086 kg β-IP/h/liter; Rate of formation of β-IP [3]: 72 g β-IP/h/liter α-IP
11 | CC(=O)O [Na(CH3 CO2)] | 49.2 | –
12 | CO [Na(OMe)] | 46.9 | –
13 | O=C(O)O [NaHCO3] | 55.1 | –
14 | [H-].[Na+] [NaH] | 58.6 | –
15 | [NH2-].[Na+] [NaNH2, sodium amide] | 49.6 | –
16 | [Na+].[OH-] [NaOH, sodium hydroxide] | 54.6 | Rate of formation of β-IP [4]: 79.5 g β-IP/h/liter α-IP
17 | [Na] [Na] | 53.7 | –
18 | O=S(=O)([O-])O.[K+] [kHSO4] | 44.7 | –
